From patent publication US9499492B2, “4-(ortho)-fluorophenyl-5-fluoropyrimidin-2-yl amines containing a sulfoximine group” (BAYER PHARMA AKTIENGESELLSCHAFT, priority 2012, dated 2016)
Like-named read-outs stand apart in the source and are kept apart here.

Columns and labels:
CDK2/CycE = CDK2/CycE (Homo sapiens (Human), UniProt P24941); experiment: CDK2/CycE kinase assay (Method 2); type: biochemical; settings: 10 μM ATP
CDK9/CycT1 = CDK9/CycT1 (Homo sapiens (Human), UniProt P50750); experiment: CDK9/CycT1 high ATP kinase assay (Method 1b); type: biochemical; settings: 2 mM ATP
Chain of CDK9/CycT1 (P50750 whole entry): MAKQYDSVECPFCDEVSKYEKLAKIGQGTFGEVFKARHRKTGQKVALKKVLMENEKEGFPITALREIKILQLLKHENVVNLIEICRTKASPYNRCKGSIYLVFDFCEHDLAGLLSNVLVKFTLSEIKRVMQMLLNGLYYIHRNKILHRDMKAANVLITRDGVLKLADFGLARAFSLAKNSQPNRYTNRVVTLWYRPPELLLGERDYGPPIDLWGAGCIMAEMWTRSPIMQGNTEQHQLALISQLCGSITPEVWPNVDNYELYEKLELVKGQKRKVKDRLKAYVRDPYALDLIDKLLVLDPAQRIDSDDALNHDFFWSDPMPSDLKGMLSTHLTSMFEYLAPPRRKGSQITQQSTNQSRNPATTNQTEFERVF
Chain of CDK9/CycT1 (O60563 whole entry partner): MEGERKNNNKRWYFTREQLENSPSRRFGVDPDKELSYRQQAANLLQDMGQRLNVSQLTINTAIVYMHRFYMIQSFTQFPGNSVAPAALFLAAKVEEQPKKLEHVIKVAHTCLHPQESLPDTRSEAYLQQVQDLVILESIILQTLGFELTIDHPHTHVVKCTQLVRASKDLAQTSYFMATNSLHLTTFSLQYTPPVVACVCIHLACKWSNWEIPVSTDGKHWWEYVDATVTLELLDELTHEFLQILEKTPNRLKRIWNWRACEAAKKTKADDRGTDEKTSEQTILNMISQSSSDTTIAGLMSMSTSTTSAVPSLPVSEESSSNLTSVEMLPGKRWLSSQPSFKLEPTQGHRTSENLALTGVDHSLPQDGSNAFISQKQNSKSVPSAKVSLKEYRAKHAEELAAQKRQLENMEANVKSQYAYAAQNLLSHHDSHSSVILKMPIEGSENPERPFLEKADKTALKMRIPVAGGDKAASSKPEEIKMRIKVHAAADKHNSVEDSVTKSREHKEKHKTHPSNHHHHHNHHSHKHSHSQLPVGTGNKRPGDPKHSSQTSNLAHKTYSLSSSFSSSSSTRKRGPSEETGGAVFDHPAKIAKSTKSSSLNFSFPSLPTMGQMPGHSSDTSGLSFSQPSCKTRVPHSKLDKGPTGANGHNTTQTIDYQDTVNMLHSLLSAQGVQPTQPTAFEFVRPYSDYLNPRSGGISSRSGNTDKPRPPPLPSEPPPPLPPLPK
Outline: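 Full-length His-tagged human CDK9/CycT1 (insect cells, ~0.5 μg/ml) pre-incubated 15 min at 22 °C with compound in Tris pH 8.0/MgCl2/DTT buffer; biotinylated peptide substrate, high ATP. After detection reagents, 1 h at 22 °C; TR-FRET 665/620 nm emission ratio (350 nm excitation) measured phosphorylation.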

[1] = test system: A2780, human ovarian carcinoma cells; experiment: Proliferation assay, A2780 (Method 3); type: cell-based; settings: A2780, 4 days, crystal violet, read-out: Inhibition of A2780 cell proliferation IC50
Outline: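 Cells grew 24 h, then were exposed to compound at 0.001–10 μM (0.5% final DMSO) for 4 days. Proliferation was read by crystal violet staining after glutaraldehyde fixation, with absorbance at 595 nm. Values were normalized to a zero-point plate (0%) and untreated cells (100%).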

[2] = test system: HeLa-MaTu-ADR, multidrug-resistant human cervical carcinoma cells; experiment: Proliferation assay, HeLa-MaTu-ADR (Method 3); type: cell-based; settings: 4 days, crystal violet, read-out: Inhibition of HeLa-MaTu-ADR cell proliferation IC50
Description: (§1) After 24 hours, the cells of one plate (zero-point plate) were stained with crystal violet (see below), while the medium of the other plates was replaced by fresh culture medium (200 μl), to which the test substances were added in various concentrations (0 μM, as well as in the range of 0.001-10 μM; the final concentration of the solvent dimethyl sulfoxide was 0.5%). The cells were incubated for 4 days in the presence of test substances. Cell proliferation was determined by staining the cells with crystal violet: the cells were fixed by adding 20 μl/measuring point of an 11% glutaric aldehyde solution for 15 minutes at room temperature. After three washing cycles of the fixed cells with water, the plates were dried at room temperature. The cells were stained by adding 100 μl/measuring point of a 0.1% crystal violet solution (pH 3.0). After three washing cycles of the stained cells with water, the plates were dried at room temperature. The dye was dissolved by adding 100 μl/measuring point of a 10% acetic acid solution. The extinction was determined by photometry at a wavelength of 595 nm. The change of cell number, in percent, was calculated by normalization of the measured values to the extinction values of the zero-point plate (=0%) and the extinction of the untreated (0 μm) cells (=100%).

[3] = test system: DU 145, hormone-independent human prostate carcinoma cells; experiment: Proliferation assay, DU 145 (Method 3); type: cell-based; settings: DU145, 4 days, crystal violet, read-out: Inhibition of DU145 cell proliferation IC50
Description: as §1

[4] = test system: Caco-2, human colorectal carcinoma cells; experiment: Proliferation assay, Caco-2 (Method 3); type: cell-based; settings: Caco-2, 4 days, crystal violet, read-out: Inhibition of Caco-2 cell proliferation IC50
Description: as §1

SMILES	IC50 (CDK2/CycE)	IC50 (CDK9/CycT1)	IC50 ([1]; Homo sapiens, A2780, 96 h)	IC50 ([2]; Homo sapiens, 96 h)	IC50 ([3]; Homo sapiens, DU-145, 96 h)	IC50 ([4]; Homo sapiens, Caco-2, 96 h)	IC50 [2]	IC50 [1]	IC50 [3]	IC50 [4]
CS(=O)(Cc1cc(Nc2ncc(F)c(-c3ccc(F)cc3F)n2)cc(C(F)(F)F)c1)=NC#N (racemic) [Example 1, (rac)-{[3-{[4-(2,4-Difluorophenyl)-5-fluoropyrimidin-2-yl]amino}-5-(trifluoromethyl)benzyl](methyl)oxido-λ^6-sulfanylidene}cyanamide]	1400 nM	39 nM								
CS(=O)(Cc1cc(Nc2ncc(F)c(-c3ccc(F)cc3F)n2)cc(S(F)(F)(F)(F)F)c1)=NC#N (racemic) [Example 28, (rac)-{[3-{[4-(2,4-Difluorophenyl)-5-fluoropyrimidin-2-yl]amino}-5-(pentafluoro-λ^6-sulfanyl)benzyl](methyl)oxido-λ^6-sulfanylidene}cyanamide]	1300 nM	5 nM	185 nM	120 nM	311 nM	222 nM				
CS(=O)(Cc1cc(Nc2ncc(F)c(-c3ccc(F)cc3F)n2)cc(C(F)(F)F)c1)=NC#N (single isomer, unassigned) [Example 2, {[3-{[4-(2,4-Difluorophenyl)-5-fluoropyrimidin-2-yl]amino}-5-(trifluoromethyl)benzyl](methyl)oxido-λ^6-sulfanylidene}cyanamide]	1200 nM	29 nM	130 nM	320 nM	310 nM	300 nM				
CS(=O)(Cc1cc(Nc2ncc(F)c(-c3ccc(F)cc3F)n2)cc(C(F)(F)F)c1)=NC#N (single isomer, unassigned) [Example 3, {[3-{[4-(2,4-Difluorophenyl)-5-fluoropyrimidin-2-yl]amino}-5-(trifluoromethyl)benzyl](methyl)oxido-λ^6-sulfanylidene}cyanamide]	1300 nM	32 nM					200 nM	260 nM	370 nM	300 nM
CS(=N)(=O)Cc1cc(Nc2ncc(F)c(-c3ccc(F)cc3F)n2)cc(S(F)(F)(F)(F)F)c1 (single isomer, unassigned) [Example 32, 4-(2,4-Difluorophenyl)-5-fluoro-N-{3-[(S-methylsulfonimidoyl)methyl]-5-(pentafluoro-λ^6-sulfanyl)phenyl}pyrimidin-2-amine]	1600 nM	6 nM		304 nM	397 nM	282 nM		268 nM		
CS(=O)(Cc1cc(Nc2ncc(F)c(-c3ccc(F)cc3F)n2)cc(S(F)(F)(F)(F)F)c1)=NC(N)=O (single isomer, unassigned) [Example 33, 1-{[3-{[4-(2,4-Difluorophenyl)-5-fluoropyrimidin-2-yl]amino}-5-(pentafluoro-λ^6-sulfanyl)benzyl](methyl)oxido-λ^6-sulfanylidene}urea]	1600 nM	99 nM					495 nM	246 nM	507 nM	716 nM

Stronger by IC50 (CDK2/CycE), values ahead:

IC50 (CDK2/CycE)	IC50 (CDK9/CycT1)	IC50 ([1]; Homo sapiens, A2780, 96 h)	IC50 ([2]; Homo sapiens, 96 h)	IC50 ([3]; Homo sapiens, DU-145, 96 h)	IC50 ([4]; Homo sapiens, Caco-2, 96 h)	IC50 [2]	IC50 [1]	IC50 [3]	IC50 [4]	SMILES
1100 nM	105 nM									CS(=O)(Cc1cc(Nc2ncc(F)c(-c3ccc(F)cc3F)n2)cc(C(F)(F)F)c1)=NC(N)=O (racemic) [Example 7, (rac)-1-{[3-{[4-(2,4-Difluorophenyl)-5-fluoropyrimidin-2-yl]amino}-5-(trifluoromethyl)benzyl](methyl)oxido-λ^6-sulfanylidene}urea]
880 nM	251 nM									CS(=N)(=O)Cc1cc(Nc2ncc(F)c(-c3ccc(F)cc3F)n2)cc(C(F)(F)F)c1 (racemic) [Example 4, (rac)-4-(2,4-Difluorophenyl)-5-fluoro-N-{3-[(S-methylsulfonimidoyl)methyl]-5-(trifluoromethyl)phenyl}pyrimidin-2-amine]
630 nM	892 nM	110 nM								CS(=N)(=O)Cc1cc(Cl)cc(Nc2ncc(F)c(-c3ccc(F)cc3F)n2)c1 (racemic) [Example 15, (rac)-N-{3-chloro-5-[(S-methylsulfonimidoyl)methyl]phenyl}-4-(2,4-difluorophenyl)-5-fluoropyrimidin-2-amine]
370 nM	16 nM		200 nM	250 nM	230 nM		970 nM			CS(=O)(Cc1cc(Nc2ncc(F)c(-c3ccc(F)cc3F)n2)cc(C(F)(F)F)c1)=NC(N)=O (single isomer, unassigned) [Example 23, 1-{[3-{[4-(2,4-Difluorophenyl)-5-fluoropyrimidin-2-yl]amino}-5-(trifluoromethyl)benzyl](methyl)oxido-λ^6-sulfanylidene}urea]
